The values that follow come from US7935525B2, “Inhibition of ATF2 activity to treat cancer” (Mount Sinai School of Medicine, priority 2001, dated 2011).

No end group written: not given here. Where only a bound is given, the exact number is not on record here.

The subject of one experiment is SW1 melanoma tumors. Nature of the experiment: Growth of SW1 tumors in FasL-deficient GLD mice. Particulars: compared with C3H. The format is in vivo. On the procedure: Tumor growth and metastasis evaluation in vivo. Cell lines established in culture to constitutively or inducibly express the peptide were injected into mice subcutaneously (S.C.). LU1205, FEMX and SW-1 cells that expressed control or peptide II were trypsinized, resuspended in PBS and injected SC (1×10^6) into 6-7 week old mice in the lower flank. When the tumor reached the size of about 50 mm^3, 5 μM of SB203580 was injected into four areas of the LU1205 tumors every 4 days during a 2-week period. For FEMX tumors UCN-01 (2.5 mg/kg) was fed by gavage twice a day, three times per week for a total of 2 weeks. Tumor growth was monitored every two days. SW-1 cells expressing peptide II under tet-inducible vector were injected SC (1×10^6). When tumors reached a size of about 50 mm^3, the mice received doxycycline in their drinking water ([…]) for a total of 2-4 weeks. At the end of the experiment, the tumors were excised and weighed. The lungs and other organs were subjected to histopathological examination to detect metastatic lesions.

Experiment [1] deals with ATF2 target sequence (c-Jun promoter motif TGACACTA). The experiment is described as follows: Electrophoretic mobility shift assay with labeled AP1 oligonucleotide. It is filed as binding, mouse. The settings on record: control vs peptide-expressing SW1 cells. On the procedure:
Electrophoretic mobility shift assays were performed as described. (Ivanov and Ronada, J Biol Chem 1999; 274(20):14079-89). GST binding assays were performed with GST-peptide II as described (Adler et al., Proc Natl Acad Sci USA 1995; 92 10585-9). SW1 cells expressing control vector or peptide II were subjected to FACS analysis following their incubation with antibodies to the cell surface receptor of FAS as described above.
For orientation: In EMSA bound probe runs differently from free probe, usually more slowly.

Experiment [2] deals with ATF2 transcriptional activity. Nature of the experiment: Jun2 promoter reporter in Jun null fibroblasts. It is filed as cell-based.
In experiment [3] the test system is SW1 tumors. The experiment is described as follows: Doxycycline-inducible peptide expression in existing SW1 tumors. It is filed as in vivo, C3H mice. The source says: Constructs. ATF2 peptides were cloned into HA-penetratin pcDNA3 vector as described above. For the doxycycline inducible system peptide II was cloned in frame with HA and Penetratin into SacII and XbaI sites of the PUHD10-3 vector (Gossen M., et al., Proc. Natl. Acad. Sci. USA. 1992, 89(12):5547-51). The PeF1PrtTA vector (Gopalkrishnan R. V., et al., Nucleic Acids Res. 1999; 27(24):4775-82) places the rtTA gene under transcriptional control of the human EF-10 promoter. Replication deficient adenovirus expressing peptide II was generated by subcloning the ATF2 peptide cDNA into the corresponding adenovirus vector as previously described (Chen S. H., et al., Proc. Natl. Acad. Sci. USA 1994; 91(8):3054-7).
Derivation of stable cell lines. Selection of clones stably expressing the rtTA construct was carried out in SW-1 cells in the presence of […] of G418. After the selection period 12 single colonies were picked, expanded and analyzed for activity by assaying for Luciferase activity (Gopalkrishnan R. V., et al., Nucleic Acids Res. 1999; 27(24):4775-82). […] The positive clone, which expresses the rtTA cDNA, was contransfected with PUHDI0-3 peptide II and Pbabe Puro vectors that allow one to establish inducible expression of the respective genes (Gopalkrishnan et al., supra) and single clones were selected with […] of Puromycin. Positive clones were selected by Western blotting.
Tumor growth and metastasis evaluation in vivo. Cell lines established in culture to constitutively or inducibly express the peptide were injected into mice subcutaneously (S.C.). LU1205, FEMX and SW-1 cells that expressed control or peptide II were trypsinized, resuspended in PBS and injected SC (1×10^6) into 6-7 week old mice in the lower flank. When the tumor reached the size of about 50 mm^3, 5 μM of SB203580 was injected into four areas of the LU1205 tumors every 4 days during a 2-week period. For FEMX tumors UCN-01 (2.5 mg/kg) was fed by gavage twice a day, three times per week for a total of 2 weeks. Tumor growth was monitored every two days. […]

In experiment [4] the test system is LU1205 melanoma cell line. Nature of the experiment: Colony forming efficiency (CFE) resistance assay. The format is cell-based, human. On the procedure: (§1) Radiation resistance. Cells (500 or 1500 per well) were plated in triplicates on 6 well plates, 24 h before treatment (Ronai et al., Oncogene 1998; 16:523-531). In all cases, plating efficiency was pre-determined so that number of cell plated was normalized respectively. Colonies (greater than 50 cells per clone) were stained with crystal violet solution (3% in 10% methanol and PBS), 14 days After treatment. % of CFE in each treatment group was calculated based on total CFE formed in the respective controls (100%).

Another experiment relates to FEMX melanoma cell line. Nature of the experiment: Colony forming efficiency (CFE) resistance assay. It is filed as cell-based, human. On the procedure:
as §1

The subject of the next experiment is Fas protein. The experiment is described as follows: Western blot of overall Fas protein in melanoma cells. It is filed as cell-based. Particulars: peptide-expressing melanoma cells. In general terms: A western blot detects proteins with antibodies after separation by electrophoresis.
In experiment [5] the test system is SW1 tumors. Nature of the experiment: cDNA microarray expression profiling of SW1 tumors. It is filed as in vivo, mouse. As for the experimental part:
cDNA microarray hybridizations. The 10 k mouse Gem 2 gene set (Incyte Genomics Inc, Palo Alto Calif.) was printed at the NCI on poly-L lysine coated glass using Biorobotics TASII arrayer (Cambridge, England). All protocols for the manufacturing and hybridization of microarrays are available at the NCI web site. Approximately 20 μg of total RNA was used in the reverse transcription reaction to directly label the probe with either Cy-5 dUTP or Cy-3 dUTP (Amersham®). Hybridizations were performed at 65° C. for 12-18 h in a hybridization volume of […]. The hybridized arrays were scanned using an Axon GenePix 4000® scanner (Union city, CA) and fluorescent data were collected using GenePix™ software.
Data Analysis. The axon image data for each microarray was uploaded to the NCI mAdb database for subsequent analysis using a variety of statistical web based tools. Gene clustering analysis was performed using the clustering algorithm and tree view software developed by Mike Eisen (Stanford, Calif.).

[6] abbreviates: tumors expressing peptide vs control vector.

With “peptide II: N-terminal polypeptide fragment of ATF2, amino acid residues 50-100, expressed from pcDNA3 with HA-penetratin tag (EMTLKFGPARNDSVIVADQTPTPTRFLKNCEEVGLFNELASPFENEFKKAS; also: HA-penetratin tag, position not given here; UniProt P15336 50-100, looked up, fragment)”, the “blocking growth of SW1 tumors” value in the experiment on SW1 melanoma tumors is recorded as “as efficient in blocking growth”. Moreover, the “binding of nuclear extracts to the labeled AP1 oligonucleotide” value in experiment [1] is listed as “No significant changes”. For the same substance, in experiment [2], the “transcriptional activity mediated from the Jun2 promoter” value is given as “marked inhibition”. The “decrease in the growth rate of tumors” value with SW1 tumors [3] (doxycycline in drinking water from 90 mm^3, 32 days) is given as about 2 fold. In the experiment on SW1 tumors [3] (inducible expression via doxycycline), the “reduction of tumor growth rate” value was found to be 50%. For the same substance, the “degree of apoptosis in tumors (tunnel assay)” value in the experiment on SW1 tumors [3] (tumors from doxycycline-fed mice) is given as “increase in degree of apoptosis”. In addition, in experiment [4] (peptide-expressing LU1205, MMC), the “effects on the sensitivity to MMC (CFE)” value is “much less pronounced effects”. The “decrease in the % of CFE” value in experiment [4] (peptide-expressing LU1205 vs neo control, UV-C 9-36 J/m^2, colonies at 14 days) was at most 3 fold. In experiment [4] (peptide-expressing melanoma cells, NCS), the “sensitivity to NCS (CFE)” value was “did not reveal substantial differences”. The “decrease in the fraction of CFE” value in the experiment on FEMX melanoma cell line (peptide-expressing FEMX vs FEMX neo, 1 µM MMC, 14 days) is at most 10 fold. In addition, the “decrease in % of CFE” value in the experiment on FEMX melanoma cell line (peptide-expressing FEMX vs neo control, UV-C 9-36 J/m^2, colonies at 14 days) is reported as “up to 10 fold”. In addition, the “overall level of Fas protein” value in the experiment with Fas protein was “increase in the overall level of Fas protein”. Besides, in the experiment with SW1 tumors [5] (four independent experiments), the “expression of ATF2” value was “downregulated” and the “expression of ATF4 transcripts” value is “increase”. Moreover, in the experiment with SW1 tumors [5] (tumors expressing peptide), the “transcripts of interleukin-1 beta, cullin 3, kinesin-associated protein 3, ATF3 and membrane metallo-endopeptidase” value is “up-regulated”; the “transcripts of tyrosine kinase 2, metallothionein 2 and ubiquitin-specific protease 18” value is “downregulated”. For the same substance, in the experiment on SW1 tumors [5] (setting [6]), the “expression of Fas-associated genes” value is listed as “Downregulation”, the “expression of growth-associated genes” value was “consistent downregulation”, the “expression of interferon-associated genes” value is “consistent downregulation” and the “expression of tumor necrosis factor-related genes (and other tumor antigens)” value is reported as “strongly upregulated”.
